Experiment: Kinetic inertness: dissociation of Gd(III)-complexes in 0.01–1.0 M HCl followed by HPLC
Format: physicochemical
Settings: for k d at pH = 7.4: dissociation rate calculated at pH 7.4, 25 °C; for k1: proton-assisted dissociation, 25 °C, [H+]≤0.15 M: [Na+]+[H+]=0.15 M; for acid-catalyzed dissociation, times slower than Gd(III)-complex with BT-DO3A / acid-catalyzed dissociation, times slower than Gd(III)-complex with HP-DO3A: ratio of k1
From the text: The kinetic inertness of the Gd(III)‐complexes with the different isomers formed by rac‐L1 and rac‐L2 was characterized by the rates of the dissociation reactions taking place in 0.01–1.0 M HCl solution. The dissociation reactions were followed by measuring the integral values of the Gd(III)‐complexes with the different isomers of rac‐L1 and rac‐L2 ligands with HPLC. The conditions of the HPLC experiments for the kinetic studies of the Gd(III)‐complexes with rac‐L1 and rac‐L2 ligands are summarized in Tables S1 and S2 (Supporting Information), respectively. The samples were kept at 25 °C in a well‐closed vessel. For the HPLC analysis, 100 µL samples were withdrawn from the solutions. The measurements were performed with 0.2 mM solution of Gd(III)‐complexes. The pseudo‐first‐order rate constants (k d) were calculated by fitting the HPLC integral – t data pairs to Equation (1). (1) At=Ar−Ave^−kdt+Av where A r, A v, and A t are the integral values of the reactants, the product, and reaction time t. The temperature was maintained at 25 °C and the ionic strength of the solutions was kept constant at [H^+]≤0.15 M, [HCl]+[NaCl] = 0.15 M. The calculation of the kinetic parameters was performed by the fitting of the absorbance – time and relaxation rate – time data pairs with the Micromath Scientist computer program (version 2.0, Salt Lake City, UT, USA).
The dissociation reactions of Gd(III)-complexes with the different isomers formed by rac-L1 and rac-L2 have been studied by HPLC method (Tables S1 and S2) at 25 °C in 0.01 – 1.0 M HCl solution to guarantee the pseudo-first-order kinetic condition. Area values as a function of time for the dissociation reactions of Gd(III)-complexes formed with the different stereoisomers of rac-L1 obtained at 25 °C in 1.0 M HCl solution are shown in Figure S48.
In the presence of HCl excess, the decomplexation of Gd(III)-complexes can be treated as a pseudo-first-order process and the reaction rate can be expressed by Equation (S9), where kd is a pseudo-first-order rate constant, [GdL]t and [GdL]tot are the concentrations of the GdL species at time t and the total concentration of the complex, respectively.
The rates of the dissociation reactions have been studied at different concentrations of HCl ([HCl]=0.01 – 1.0 M, 25 °C). The kd values obtained for the Gd(III)-complexes with the different isomers of rac-L1 and rac-L2 ligands as a function of [H^+] are shown in Figures S49 and S50.
The obtained kd pseudo-first order rate constants are directly proportional to the concentration of H^+. The increase in the kd values with increasing concentration of H^+ can be interpreted in terms of the proton assisted dissociation of Gd(III)-complexes. […] The proton assisted dissociation of Gd(III)-complexes might be explained by the equilibrium formation of a protonated *Gd(HL) intermediate (Equation (S11)), which dissociates spontaneously (Equation (12)).
where k0, and k1 = kGdHL×K^HGdHL are the rate constants characterizing the spontaneous and proton-assisted dissociation of Gd(III)-complexes. The protonation constant (K^HGdHL) of Gd(DOTA)-like complexes are very small (Gd(DOTA): K^HGdHL =14).^[22] By considering very low protonation constant of Gd(III)-complexes with A, C and D isomers of rac-L1 and A’, C’ and D’ isomers of rac-L2 ligands (K^HGdHL<<10), the denominator of Equation (S14) (1>> K^HGdHL [H^+]) can be neglected, so Equation (S14) can be simplified in the form of Equation (S15). The k0 and k1 values of the Gd(III) complexes with A, C and D isomers of rac-L1, and A’, C’ and D’ isomers of rac-L2 ligands have been calculated by fitting of the kinetic data (Figures S49 and S50) to Equation (S15).
The k1 rate and logK^HGdHL protonation constants characterizing the acid-catalyzed decomplexation of Gd(III)-complexes formed with the different stereoisomers of rac-L1 and rac-L2 are presented and compared with those of [Gd(PCTA)], [Gd(DOTA)]^-, [Gd(HP-DO3A)] and [Gd(BT-DO3A)] in Table S19.

SMILES | k d at pH = 7.4 (listed as RRR/SSS (C)) | k d at pH = 7.4 (listed as [Gd(rac-L1)] C (RRR/SSS)) | k1 | k d at pH = 7.4 (listed as RRR/SSS (D′)) | k d at pH = 7.4 (listed as [Gd(rac-L2)] D’ (RRR/SSS)) | acid-catalyzed dissociation, times slower than Gd(III)-complex with BT-DO3A | acid-catalyzed dissociation, times slower than Gd(III)-complex with HP-DO3A
O=C([O-])CCC(C(=O)[O-])N1CCN(C(CCC(=O)[O-])C(=O)[O-])Cc2cccc(n2)CN(C(CCC(=O)[O-])C(=O)[O-])CC1.[Gd+3] (racemic) [[Gd(ent‐L1)]^3−] | RRR/SSS (C): 5.61 × 10^−14 s^−1 | 5.61×10^-14 s^−1 | (1.4±0.1) ×10^-6 M^-1s^-1 | – | – | – | –
O=C(CCC(C(=O)[O-])N1CCN(C(CCC(=O)NCC(O)CO)C(=O)[O-])Cc2cccc(n2)CN(C(CCC(=O)NCC(O)CO)C(=O)[O-])CC1)NCC(O)CO.[Gd+3] (stereo not drawn) [[Gd(ent‐L2)]] | – | – | (4.4±0.2) ×10^-6 M^-1s^-1 | RRR/SSS (D′): 1.74 × 10^−13 s^−1 | 1.74×10^-13 s^−1 | – | –
O=C(O)CCC(C(=O)O)N1CCN(C(CCC(=O)O)C(=O)O)Cc2cccc(n2)CN(C(CCC(=O)O)C(=O)O)CC1 (stereo not drawn) [ent‐L1] | – | – | – | – | – | 24 times | 207 times
O=C(CCC(C(=O)O)N1CCN(C(CCC(=O)NCC(O)CO)C(=O)O)Cc2cccc(n2)CN(C(CCC(=O)NCC(O)CO)C(=O)O)CC1)NCC(O)CO (stereo not drawn) [ent‐L2] | – | – | – | – | – | 7 times | 66 times

Reference: paper PMC11984905, “Chiral Switch of Gadopiclenol: New Standards in MRI Probes” (Advanced Science, 2025)
